Results on three compounds are retold here after US8975259B2, “Compositions and methods for inhibiting G protein signaling” (University of Rochester, priority 2007, dated 2015).

Like-named read-outs stand apart in the source and are kept apart here.

The test system of series [1] is differentiated HL60 cells. The experiment in a line: Chemokinesis (fMLP in upper and lower Boyden chambers). Format: cell-based, human. The following applies: fMLP in both chambers; result in words. The procedure:
Same as A with purified human neutrophils.
Chemotaxis was assayed using a Boyden chamber (Neuro Probe, Gaithersburg, Md.) using 3-μm polyvinylpyrrolidone-free polycarbonate filters (Neuro Probe). HL60 cells (differentiated for 4 days) were washed with and resuspended in HBSS containing 1% bovine serum albumin to a final concentration of 1×10^6 cells/ml. Primary human neutrophils were washed and resuspended in NaCl buffer (140 mM NaCl, 4 mM KCl, 10 mM D-glucose, 10 mM HEPES, pH 7.4, 1 mM MgCl2, and 1 mM CaCl2) to a final concentration of 1×10^6 cells/mi. Chemoattractant [1 μM granulocyte-macrophage-colony stimulating factor (GM-CSF), 10 nM IL-8, or 250 nM fMLP; Sigma Aldrich] was added to the bottom chamber in HBSS containing 1% bovine serum albumin. Cell suspensions (0.2×10^6 cells/well) were added to the top wells of the Boyden chamber and allowed to migrate for 1 h at 37° C. […] Chemotactic HL60 cells were scored by counting three microscope fields and subtracting the number of cells from fMLP wells as background. […] For all the small molecules, effects of the compounds on chemokinesis was analyzed by measuring chemotaxis in the presence of 250 nM fMLP in both the upper and lower chambers of the Boyden Chamber and measuring changes in transwell migration. […]

The next series concerns the target Gβ1γ2 (UniProt P54311+P63212). The experiment in a line: Surface plasmon resonance direct binding to Gβ1γ2. As to conditions: for kon: read-out: association rate constant (kon, ka); for koff: read-out: dissociation rate constant (koff, kd). On the set-up: made in house; host or cells: Sf9 insect cells (baculovirus). The source says: To understand the protein binding characteristics of compounds a surface plasmon resonance (SPR) method was developed for monitoring direct small molecule binding to G βγ subunits using a Reichert SPR instrument. In addition to binding affinity, binding kinetics can be obtained from this analysis. […] To obtain the data in herein, 3000 refractive index units (RIU) of Gβ1γ2 was immobilized to maximize detection of small molecule binding (Karlsson et al., 2006; Markgren et al., 2001; Rich et al., 2001) and compounds were injected at 75 μl/min and changes in bulk refractive index were accounted for in a reference flow cell. […] This method is used to analyze compound binding kinetics and calculate equilibrium binding constants to test the mechanisms of action and selectivity of various “hot spot” binding compounds.
Direct binding of “hot spot” binding small molecules was assessed using the Reichert SR7000 Surface Plasmon Resonance dual chamber instrument equipped with an autosampler (Reichert, Depew, N.Y.). To activate the sensor chip surface, a mixture of 0.1 M 1-ethyl-3-(3-dimethylaminopropyl) carbodiimide hydrochloride and 0.05 M N-hydroxysuccinimide was injected (flow rate 5 μl/min) over the sensor surface. Streptavidin (100 μg/ml; prepared in 20 mM sodium acetate buffer, pH 5.5) was coupled to the sensor chip surface followed by quenching the remaining activated carboxyl groups with 1 M ethanolamine, pH 8.5. bGβ1γ2 was conjugated to the streptavidin-coated chip in running buffer (50 mM HEPES, pH 7.6, 1 mM EDTA, 100 mM NaCl, 0.1% C12E10, and 1 mM dithiothreitol) to achieve 2000 micro-refractive index units. A second reference cell was treated similarly, but bGβ1γ2 was excluded. Direct binding of small molecules was tested out at room temperature with a flow rate of 75 μl/min. Compounds were prepared in running buffer and injected for 10 min followed by a dissociation phase of 10 min. The obtained sensorgrams were corrected for nonspecific background by running the same experiment in series over an identical sensor surface with immobilized streptavidin, blocked with biotin, without bGβγ. […] Best fit kinetic parameters were determined using kinetic titration model and ClampXP ver. 3.5, which accounts for incomplete dissociation between injections (Karisson et al., 2006).
In general terms: Surface plasmon resonance follows binding to a sensor surface in real time, without labels.

Series [2] relates to GFP-PHAkt translocation (PI3Kγ activation) in HL60 cells. In words: fMLP-dependent GFP-PH-Akt translocation in differentiated HL60 cells. It counts as cell-based, human. The following applies: 10 μM compound; result in words.
Series [3] in a line: Toxicity on repeated daily dosing in animals. It counts as in vivo.
Another series concerns the target T1, Gβγ-GRK2 interaction (UniProt P54311+P63212).
T1 construct: made in house; host or cells: bGβ1γ2: Sf9 insect cells
In words: GRK2 binding to biotinylated Gβ1γ2 on streptavidin agarose.

A further series relates to PLCβ3. The experiment in a line: Gβ1γ2-dependent activation of purified PLCβ3. It counts as biochemical. As to conditions: for effect on Gβ1γ2-dependent activation of PLCβ3: result in words. How it is done: (§1) Purified PLCβ2 (0.25 ng) was assayed in the presence (▴) or absence (▪) of 100 nM purified Gβ1γ2. […] Assays contained 10 ng of purified p101/p110 PI3Kγ heterodimer with or without 100 nM purified Gβ1γ2. Left panel: (▴) 100 nM Gβ1γ2 or (▪) no βγ. […] M119 or M201 and 25 nM purified GRK2 were added simultaneously to 250 nM biotinylated Gβ1γ2 (bGβ1γ2) immobilized on streptavidin agarose. GRK2 was detected with antibody to GRK2. Data are representative (mean ±SEM, except D) repeated at least three times each. […] 30 nM bGβ1γ2 was incubated with either 30 nM PLCβ2 or PLCβ3 in the presence or absence of M119 or M201 for 16 h at 4° C. before precipitation with avidin agarose and detection with PLCβ2,or Gβ antibodies. […] Same as 4E with PLCβ3.
The ability of NSC119910 analogs to selectively modulate activation PLC-β2 and -β3 was analyzed. In this assay, PLC-β2 and PLC-β3 were purified and PLC enzymatic activity was measured in the presence or absence of purified βy and in the presence or absence of analog.
(§2) Nevertheless, M119 and M201 were tested in in vitro reconstitution assays of Gβγ-dependent activation of PLCβ2, PLCβ3 and PI3Kγ and binding to GRK2. […] These are only two of multiple diverse compounds identified, indicating potential for multiple modes of Gβγ-dependent target modulation by these small molecules.

A further series has as its system PI3Kγ. The experiment in a line: Gβ1γ2-dependent activation of purified p101/p110 PI3Kγ. It counts as biochemical. As to conditions: for effect on Gβ1γ2-dependent activation of PI3Kγ: result in words. The procedure:
as §1, §2

Gβ1γ2, sequence (P54311 whole entry): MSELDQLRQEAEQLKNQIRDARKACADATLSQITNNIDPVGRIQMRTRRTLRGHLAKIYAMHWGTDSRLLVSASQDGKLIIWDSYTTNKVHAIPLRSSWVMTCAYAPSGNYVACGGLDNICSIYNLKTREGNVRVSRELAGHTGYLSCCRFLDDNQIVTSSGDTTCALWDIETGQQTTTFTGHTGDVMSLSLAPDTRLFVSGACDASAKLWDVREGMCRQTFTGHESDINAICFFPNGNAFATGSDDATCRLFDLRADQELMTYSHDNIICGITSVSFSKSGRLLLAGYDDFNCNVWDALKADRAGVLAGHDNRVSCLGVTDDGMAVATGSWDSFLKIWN
Gβ1γ2, sequence (P63212 2-68 limits assumed): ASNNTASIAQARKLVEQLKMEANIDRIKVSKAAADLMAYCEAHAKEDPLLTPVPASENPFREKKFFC
T1 sequence (P54311 whole entry): as the sequence (P54311 whole entry) above
T1 sequence (P63212 2-68 limits assumed): as the sequence (P63212 2-68 limits assumed) above

The Kd is the equilibrium constant for the complex coming apart. In general, kon refers to the second-order rate constant of association. As a reminder, the koff is the rate constant with which the complex falls apart. For the compound `O=C(O)c1ccccc1-c1c2ccc(=O)c(O)c-2oc2c(O)c(O)ccc12` (racemic) [Gallein], the effect on chemokinesis result in series [1] is on record as “Neither M119 nor gallein had any effects”. Moreover, the Kd on Gβ1γ2 (SPR, read-out: Kd) is roughly 0.4 µM. In addition, at Gβ1γ2 (SPR), the kon amounted to 1130 ± 17 M⁻¹ s⁻¹ and the koff was found to be 0.00043 s⁻¹. Further, in series [2], the “effect on fMLP-dependent translocation of GFP-PHAkt to the membrane” value was “inhibited”. The “toxicity in intact animals and histology of lung, liver, brain, heart and kidney” value in series [3] (10, 30 and 100 mg/kg/day daily injections, two weeks) is “nor any overt toxicity”.
`O=C(O)C1CCCCC1c1c2ccc(=O)c(O)c-2oc2c(O)c(O)ccc12` (centres unmarked) [Compound M119, cyclohexanecarboxylic acid, 2-(4,5,6-trihydroxy-3-oxo-3H-xanthen-9-yl)-(9cl)]: in series [1], the effect on chemokinesis result was “Neither M119 nor gallein had any effects”. In addition, the affinity at Gβ1γ2, expressed as Kd, was 0.1 µM. In addition, the kon on Gβ1γ2 (SPR) came out at 2000 M⁻¹ s⁻¹. In addition, the koff on Gβ1γ2 (SPR) amounted to 0.0002 s⁻¹. The “effect on fMLP-dependent translocation of GFP-PHAkt to the membrane” value in series [2] is recorded as “inhibited”. The IC50 on Gβγ-GRK2 interaction is roughly 5 µM; with PLCβ3 (Table 19, effector IC50, read-out: PLCb3) it was 3 µM; in the series on PI3Kγ (Table 19, effector IC50, read-out: PI 3-Kg) it was 8 µM. The “effect on Gβ1γ2-dependent activation of PLCβ3” value with PLCβ3 is reported as “attenuated”. In addition, in the series on PI3Kγ, the “effect on Gβ1γ2-dependent activation of PI3Kγ” value is recorded as “attenuated”. In addition, the toxicity entry in series [3] (100 mg/kg/day intraperitoneal, one week) is recorded as “no overt toxicity was observed”.
As to `O=C(O)C1CCCCC1c1c2ccc(=O)cc-2oc2cc(O)ccc12` (centres unmarked) [Compound M119B], at Gβγ-GRK2 interaction (result in words), the “effect on GRK2 binding to bGβ1γ2” value is on record as “did not have effects”. The “effect on Gβ1γ2-dependent activation of PLCβ3” value in the series with PLCβ3 is reported as “did not have effects”. The “effect on Gβ1γ2-dependent activation of PI3Kγ” value in the series on PI3Kγ is on record as “did not have effects”.
